Laboratory results taken from ChEMBL document CHEMBL1201862, “PubChem BioAssay data set” (2004).
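Briefly, cells in 96-well plates were exposed to five compound concentrations for 48 h, and endpoints were estimated by linear interpolation. GI50 is the concentration that inhibits growth by half.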 Active and inactive are the calls of the source. No stated cut-off is given here; in the data, active = GI50 up to about 1.1 µM and inactive = higher.

What was measured:
Assay in all cases: inhibition of tumour cell growth, NCI panel, 48 h
CCRF-CEM = test system: CCRF-CEM
COLO 205 = test system: COLO 205
HCC 2998 = test system: HCC 2998
HCT-116 = test system: HCT-116
HCT-15 = test system: HCT-15
HOP-92 = test system: HOP-92
HT-29 = test system: HT-29
Malme-3M = test system: Malme-3M
NCI-H226 = test system: NCI-H226
OVCAR-8 = test system: OVCAR-8
SF-295 = test system: SF-295
SF-539 = test system: SF-539
SK-MEL-28 = test system: SK-MEL-28
SK-MEL-5 = test system: SK-MEL-5
SK-OV-3 = test system: SK-OV-3
SNB-19 = test system: SNB-19
SR = test system: SR
UACC-257 = test system: UACC-257
ACHN = test system: ACHN
K562 = test system: K562

Measured: GI50

Cc1ccc(C(=O)C2CC3(CCC2(O)c2ccc(C)cc2)CC(=O)Nc2ccccc2C3=O)cc1 (centres undefined)
> 100 µM: HCT-15
inactive: CCRF-CEM 5.66 µM | COLO 205 > 100 µM | HCC 2998 > 100 µM | HCT-116 62.7 µM | HOP-92 19.4 µM | HT-29 > 100 µM | Malme-3M > 100 µM | NCI-H226 > 100 µM | OVCAR-8 > 100 µM | SF-295 28.4 µM | SF-539 > 100 µM | SK-MEL-28 > 100 µM | SK-MEL-5 6.89 µM | SK-OV-3 > 100 µM | SNB-19 51.6 µM | SR > 100 µM | UACC-257 > 100 µM

CC1CN=C(Nc2cccc(C(F)(F)F)c2)S1 (centres undefined)
36.1 µM: HCT-15
inactive: ACHN > 100 µM | CCRF-CEM 31.9 µM | HCC 2998 > 100 µM | HCT-116 41.7 µM | HT-29 78.7 µM | K562 30.4 µM | Malme-3M > 100 µM | NCI-H226 79.3 µM | SF-539 > 100 µM | SK-MEL-28 > 100 µM | SK-OV-3 94.4 µM | SNB-19 95.5 µM | SR 21.7 µM | UACC-257 52.5 µM

Nc1nc(=O)n(CC(O)CO)s1 (centres undefined)
inactive: ACHN > 100 µM | CCRF-CEM > 100 µM | COLO 205 > 100 µM | HCC 2998 > 100 µM | HCT-116 > 100 µM | HT-29 > 100 µM | K562 > 100 µM | Malme-3M > 100 µM | NCI-H226 > 100 µM | OVCAR-8 > 100 µM | SF-295 > 100 µM | SF-539 > 100 µM | SK-MEL-5 > 100 µM | SNB-19 > 100 µM | SR > 100 µM | UACC-257 > 100 µM
> 100 µM: HCT-15
active: SK-MEL-28 < 0.01 µM

COc1ccc(-c2cc(-c3ccccc3)c(C#N)c(=O)n2C2OC(CO)C(O)C(O)C2O)cc1 (centres undefined)
> 100 µM: HCT-15
inactive: ACHN > 100 µM | CCRF-CEM > 100 µM | COLO 205 > 100 µM | HCC 2998 > 100 µM | HCT-116 > 100 µM | HT-29 > 100 µM | K562 > 100 µM | Malme-3M > 100 µM | NCI-H226 > 100 µM | OVCAR-8 > 100 µM | SF-295 > 100 µM | SF-539 > 100 µM | SK-MEL-28 > 100 µM | SK-MEL-5 > 100 µM | SK-OV-3 > 100 µM | SNB-19 > 100 µM | SR > 100 µM | UACC-257 > 100 µM

COc1ccc(N2C(=O)CSC2c2c[nH]c3ccccc23)cc1 (centres undefined)
inactive: CCRF-CEM 39.5 µM | COLO 205 92.7 µM | HCC 2998 > 100 µM | HCT-116 59.2 µM | HOP-92 52.7 µM | HT-29 51.1 µM | K562 26.2 µM | OVCAR-8 60 µM | SF-295 44.9 µM | SK-MEL-28 > 100 µM | SK-MEL-5 88.5 µM | SK-OV-3 > 100 µM | SNB-19 > 100 µM | SR 43 µM | UACC-257 > 100 µM
70.3 µM: HCT-15

S=C(N/N=C(/c1ccccc1)c1ccccn1)Nc1cccc(Cl)c1
active: ACHN 0.225 µM | CCRF-CEM < 0.0258 µM | COLO 205 < 0.0315 µM | HCC 2998 0.748 µM | HCT-116 < 0.0189 µM | Malme-3M 0.119 µM | NCI-H226 0.508 µM | OVCAR-8 0.0454 µM | SF-295 0.422 µM | SK-MEL-28 1.01 µM | SK-MEL-5 0.185 µM | SK-OV-3 0.215 µM | SR < 0.026 µM | UACC-257 < 0.0475 µM
inactive: HOP-92 1.93 µM | SF-539 1.48 µM | SNB-19 3.01 µM

Cc1[nH]c(=O)nc(S)c1C(=O)NC1C2CCCCC2NC2CCCCC21 (centres undefined)
inactive: CCRF-CEM 14.8 µM | COLO 205 20.5 µM | HCC 2998 25 µM | HCT-116 15.1 µM | HOP-92 18.5 µM | HT-29 21.4 µM | K562 4.57 µM | Malme-3M 24.1 µM | NCI-H226 17.3 µM | OVCAR-8 15.1 µM | SF-295 17.2 µM | SK-MEL-28 11.2 µM | SK-MEL-5 18.9 µM | SK-OV-3 > 10 µM | SNB-19 15.6 µM | SR 28.6 µM | UACC-257 16.3 µM
10.9 µM: HCT-15

O=C1CC(=O)N(c2ccccc2)N1/C(=C/c1ccccc1)c1ccccc1
active: CCRF-CEM 0.336 µM
inactive: ACHN 25.8 µM | COLO 205 19.8 µM | HCC 2998 20.1 µM | HCT-116 16 µM | HOP-92 13.2 µM | HT-29 20 µM | K562 1.54 µM | NCI-H226 21.9 µM | OVCAR-8 19.8 µM | SF-295 17.3 µM | SK-MEL-28 12.3 µM | SK-MEL-5 14.5 µM | SK-OV-3 25.6 µM | SNB-19 19.6 µM | SR 12.3 µM | UACC-257 24.8 µM

CN1C(=O)[C@@H]2[C@@H]3c4ccccc4N[C@@H]3c3[nH]c4ccccc4c3[C@@H]2C1=O
18.8 µM: HCT-15
inactive: ACHN 18.5 µM | CCRF-CEM 17.3 µM | COLO 205 17 µM | HCC 2998 18.2 µM | HCT-116 29.4 µM | HOP-92 20 µM | HT-29 36.1 µM | K562 22.3 µM | NCI-H226 60.8 µM | OVCAR-8 21.6 µM | SF-295 18.6 µM | SF-539 19 µM | SK-MEL-28 24.5 µM | SK-MEL-5 12.5 µM | SK-OV-3 26.1 µM | SNB-19 29.6 µM | SR 15.8 µM | UACC-257 17.9 µM

Nc1c(Br)cc2c(c1Br)Cc1cc(Br)ccc1-2
> 100 µM: HCT-15
inactive: ACHN > 100 µM | CCRF-CEM > 100 µM | COLO 205 > 100 µM | HCC 2998 > 100 µM | HCT-116 > 100 µM | HOP-92 > 100 µM | HT-29 > 100 µM | K562 > 100 µM | NCI-H226 > 100 µM | OVCAR-8 > 100 µM | SF-295 > 100 µM | SK-MEL-28 > 100 µM | SK-MEL-5 > 100 µM | SK-OV-3 > 100 µM | SNB-19 > 100 µM | SR > 100 µM | UACC-257 > 100 µM

C[C@]12C[C@H](O)[C@H]3[C@@H](CCC4=CC(=O)CC[C@@]43C)[C@@H]1CC[C@@H]2c1csc(-c2ccccc2)n1
> 100 µM: HCT-15
inactive: ACHN > 50.6 µM | COLO 205 > 28 µM | HCT-116 > 100 µM | HOP-92 27.8 µM | HT-29 > 30.3 µM | K562 1.52 µM | Malme-3M > 44.2 µM | NCI-H226 > 58.1 µM | OVCAR-8 35.8 µM | SF-295 > 100 µM | SF-539 62.5 µM | SK-MEL-28 > 100 µM | SK-OV-3 27.5 µM | SNB-19 29.6 µM | SR 3.21 µM | UACC-257 3.48 µM

COc1ccc(-c2c(C#N)c(N)nc3c2CCS(=O)(=O)c2ccccc2-3)cc1
inactive: ACHN > 100 µM | CCRF-CEM > 100 µM | COLO 205 > 100 µM | HCC 2998 > 100 µM | HCT-116 > 100 µM | HOP-92 > 100 µM | HT-29 > 100 µM | K562 > 100 µM | Malme-3M 44.3 µM | NCI-H226 > 100 µM | OVCAR-8 > 100 µM | SK-MEL-28 > 100 µM | SK-MEL-5 > 100 µM | SNB-19 > 100 µM | SR > 100 µM | UACC-257 > 100 µM
> 100 µM: HCT-15

Cc1cnc(SCCN2CCN(C)CC2)nc1-c1cc2ccccc2s1
10.5 µM: HCT-15
inactive: CCRF-CEM 3.18 µM | COLO 205 14.3 µM | HCC 2998 13.3 µM | HCT-116 11.4 µM | HOP-92 5.53 µM | HT-29 6.03 µM | Malme-3M 17 µM | NCI-H226 11.9 µM | OVCAR-8 12.6 µM | SF-295 9.14 µM | SF-539 12.6 µM | SK-MEL-28 16.2 µM | SK-MEL-5 3.46 µM | SK-OV-3 3.77 µM | SR 2.48 µM | UACC-257 10.3 µM

COc1ccccc1NC(=O)/C(Cc1nc2ccc([N+](=O)[O-])cc2nc1O)=N\NC(=O)C[N+](C)(C)C
40.7 µM: HCT-15
inactive: ACHN > 100 µM | CCRF-CEM 13.3 µM | COLO 205 37.2 µM | HCC 2998 29.6 µM | HCT-116 46.8 µM | HOP-92 > 100 µM | HT-29 30.5 µM | NCI-H226 > 100 µM | OVCAR-8 > 100 µM | SF-295 55.7 µM | SF-539 49.5 µM | SK-MEL-28 > 100 µM | SK-MEL-5 26.4 µM | SK-OV-3 > 100 µM | SNB-19 > 100 µM | SR 1.44 µM | UACC-257 > 100 µM

O=C(N/N=C\C(F)(F)F)c1ccncc1
26.9 µM: HCT-15
inactive: CCRF-CEM 3.48 µM | COLO 205 6.14 µM | HCC 2998 18.5 µM | HOP-92 > 100 µM | HT-29 7.59 µM | K562 7.62 µM | Malme-3M > 100 µM | NCI-H226 62.2 µM | OVCAR-8 48.2 µM | SF-295 30.5 µM | SK-MEL-28 80.7 µM | SK-MEL-5 20.5 µM | SK-OV-3 31.6 µM | SNB-19 71.9 µM | SR 35.2 µM | UACC-257 49.3 µM

O=C(/C=C/c1ccc(O)c(O)c1)O[C@H]1CCCC[C@@H]1OC(=O)/C=C/c1ccc(O)c(O)c1
6.73 µM: HCT-15
inactive: ACHN 7.98 µM | CCRF-CEM 4.8 µM | COLO 205 22.9 µM | HCC 2998 11.2 µM | HCT-116 3.72 µM | HOP-92 8.93 µM | K562 7.57 µM | Malme-3M 15.7 µM | OVCAR-8 10.9 µM | SF-295 12.9 µM | SF-539 11.1 µM | SK-MEL-28 15.8 µM | SK-MEL-5 6.04 µM | SK-OV-3 15.8 µM | SNB-19 12.3 µM | SR 5.87 µM | UACC-257 15.6 µM
